This assay has as its target human TRPA1 (Homo sapiens (Human), UniProt O75762). In words: FLIPR assay of inhibitory activity on human TRPA1 (calcium ion flux fluorescence). Type of assay: cell-based. The conditions noted are these: HEK293 cells stably expressing human TRPA1. The method, then:
1. FLIPR Assay of Inhibitory Activity on Human TRPA1
A calcium ion flux fluorescence method (FLIPR assay) was adopted to measure the inhibitory activity of compounds on human TRPA1 channel. The literature reports of Lee and Chen et al. may be referred to for the method [Lee et al. Br J Pharmacol 2008, 153 (8): 1739-1749] [Chen et al. Pain 2011, 152(5):1165-72].
A HEK293 recombinant cell strain stably expressing human TRPA1 (Creative Biogene, NY) was cultured in DMEM (Thermo Fisher Scientific, Shanghai) medium (containing 10% calf serum, 5 μg/ml Blasticidin and 400 ug/ml G418). The incubator was under a condition of 37° C. and air humidity with 5% CO2.
TRPA1 cells were seeded in a 96-well analysis plate at a density of 75,000 cells per well (100 ul/well), and cultured overnight in an incubator at 37° C. and 5% CO2. On the second day, incubation was continued overnight under the same condition to induce the expression of TRPA1 after the culture medium in each well was poured out and a fresh supplement with the same culture medium containing 0.1 μg/ml Tetracycline was added. The further next day, the culture medium was pour out, a DMEM culture solution (also containing 2.5 mM Probenicid) containing 5 μM Fluo-4 AM (Molecular Probes) was added to each well, and incubation was conducted at 37° C. for 1 hour.
The compound was dissolved in 100% DMSO to prepare a 30 mM stock solution which was stored at −20° C. On the day of use, the compound stock solution was thawed at room temperature. Each compound was subjected to 1:5 serial dilution using DMSO medium at a starting concentration of 30 μM with 9 concentration points on a 96-well plate. Each compound was diluted in duplicate for testing. Ruthenium Red was used as the positive control compound and the same dilution was carried out at a starting concentration of 3 μM.
The cell analysis plate was placed in an FLIPR instrument […], and the compound in the compound plate was added to the corresponding hole on the cell analysis plate (First addition) via an automatic program, and the calcium ion fluorescence signal was recorded to determine whether the compound had agonistic activity. After 10 minutes, CaCl2 (Second addition) was added a final concentration of 3 mM to each well to stimulate intracellular calcium flux signals. Ca^++-dependent fluorescence signal was monitored continuously at 538 nm wavelength to analyze the inhibitory activity of the compounds.
The data was collected and analyzed using a FLIPR program. The fluorescence peak value was used to evaluate the inhibitory (or agonistic) activity of the compounds at each concentration. EXCEL and PRISM programs were used to calculate the IC50 value of the compounds.
Chain of human TRPA1 (O75762 whole entry): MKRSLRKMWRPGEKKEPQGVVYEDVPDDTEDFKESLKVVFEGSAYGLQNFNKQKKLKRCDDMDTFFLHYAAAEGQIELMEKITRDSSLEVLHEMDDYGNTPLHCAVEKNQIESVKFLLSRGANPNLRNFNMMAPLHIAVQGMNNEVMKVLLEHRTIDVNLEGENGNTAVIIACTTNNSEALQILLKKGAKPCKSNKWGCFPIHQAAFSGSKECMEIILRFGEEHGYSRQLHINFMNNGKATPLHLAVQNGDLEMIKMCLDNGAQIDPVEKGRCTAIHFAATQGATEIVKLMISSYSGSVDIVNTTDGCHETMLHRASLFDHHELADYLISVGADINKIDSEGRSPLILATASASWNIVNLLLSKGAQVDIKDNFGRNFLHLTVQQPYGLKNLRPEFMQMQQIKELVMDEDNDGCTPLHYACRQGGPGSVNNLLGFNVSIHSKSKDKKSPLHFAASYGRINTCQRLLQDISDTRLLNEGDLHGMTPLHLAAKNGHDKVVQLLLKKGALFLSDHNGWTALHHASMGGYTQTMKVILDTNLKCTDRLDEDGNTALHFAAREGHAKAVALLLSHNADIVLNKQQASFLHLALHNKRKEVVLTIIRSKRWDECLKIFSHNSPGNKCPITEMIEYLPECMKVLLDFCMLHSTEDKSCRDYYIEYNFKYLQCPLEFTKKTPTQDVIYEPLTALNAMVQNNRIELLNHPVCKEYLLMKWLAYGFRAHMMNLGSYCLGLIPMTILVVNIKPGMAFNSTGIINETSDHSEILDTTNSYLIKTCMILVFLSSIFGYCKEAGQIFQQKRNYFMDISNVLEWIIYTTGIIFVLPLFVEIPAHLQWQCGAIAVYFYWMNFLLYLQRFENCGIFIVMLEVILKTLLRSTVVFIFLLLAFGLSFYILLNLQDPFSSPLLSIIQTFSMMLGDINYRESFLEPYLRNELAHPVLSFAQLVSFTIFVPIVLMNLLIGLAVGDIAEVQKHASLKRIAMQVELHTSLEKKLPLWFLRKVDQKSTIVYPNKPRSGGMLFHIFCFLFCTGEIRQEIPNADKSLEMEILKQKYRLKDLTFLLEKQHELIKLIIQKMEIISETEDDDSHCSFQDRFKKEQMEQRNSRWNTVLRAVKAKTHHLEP
As to `CC(C)(C)C1CCN(C(=O)C2(Nc3ccc(C#N)cc3)CCC2)CC1` [Compound 37, 4-((1-(4-(tert-butyl)piperidine-1-carbonyl)cyclobutyl)amino) benzonitrile], the IC50 was 5.21 µM.
For `COc1cc(Cl)ccc1N1CCN(C(=O)C2(Nc3ccc(C#N)cc3)CCCC2)CC1` [Compound 6, 4-((1-(4-(4-chloro-2-methoxyphenyl)piperazine-1-carbonyl)cyclopentyl)amino)benzo-nitrile], the 50% inhibitory concentration (IC50) amounted to 0.035 µM.
With `Cn1cc(C#N)cc1OC1(C(=O)N2CCC(C(C)(C)C)CC2)CCCC1` [Compound 65, 5-((1-(4-(tert-butyl)piperidine-1-carbonyl)cyclopentyl)oxy)-1-methyl-1H-pyrrole-3-car bonitrile] the figure was 1.07 µM.
The value for `N#Cc1ccc(NC2(C(=O)N3CCN(c4ncc(C(F)(F)F)cn4)CC3)CCCC2)cc1` [Compound 17, 4-((1-(4-(5-(trifluoromethyl)pyrimidin-2-yl)piperazine-1-carbonyl)cyclopentyl)amino)ben zonitrile] was 0.018 µM.
As to `N#Cc1ccc(OC2(C(=O)N3CCN(c4ccc(C(F)(F)F)nn4)CC3)CCCC2)cc1Cl` [Compound 60, 2-chloro-4-((1-(4-(6-(trifluoromethyl)pyridazin-3-yl)piperazine-1-carbonyl)cyclopentyl)oxy)benzonitrile], the IC50 worked out at 0.847 µM.
With `N#Cc1ccc2c(c1)CC(C(=O)N1CCN(c3nccc(C(F)(F)F)n3)CC1)N2` (centres unmarked) [Compound 69, 2-(4-(4-(trifluoromethyl)pyrimidin-2-yl)piperazine-1-carbonyl)-5-cyanoindoline] the figure was 0.386 µM; with `N#Cc1ccc(NC2(C(=O)N3CCN(c4ccccc4C(F)(F)F)CC3)CCCC2)cc1` [Compound 3, 4-((1-(4-(2-(trifluoromethyl)phenyl)piperazine-1-carbonyl)cyclopentyl)amino)benzo-nitrile], 1.58 µM; with `N#Cc1ccc(NC2(C(=O)N3CCC(C4CCCCC4)CC3)CCCC2)cc1` [Compound 35, 4-((1-(4-(cyclohexyl)piperidine-1-carbonyl)cyclopentyl)amino)benzonitrile], 0.085 µM.
The value for `N#Cc1ccc(NC2(C(=O)N3C[C@H]4CC[C@@H](C3)N4c3cccc(C(F)(F)F)n3)CCCC2)cc1` [Compound 28, 4-((1-(8-(6-(trifluoromethyl)pyridin-2-yl)-3,8-diazabicyclo[3.2.1]octane-3-carbonyl)cyclopentyl)amino)benzonitrile] was 0.015 µM.
The value for `N#Cc1ccc2c(c1)CC(C(=O)N1CCN(c3cccc(C(F)(F)F)c3)CC1)N2` (centres unmarked) [Compound 70, 2-(4-(3-(trifluoromethyl)phenyl)piperazine-1-carbonyl)-5-cyanoindoline] was 0.092 µM.
With `N#Cc1ccc(NC2(C(=O)N3CCN(c4ncc(C(F)(F)F)s4)CC3)CCCC2)cc1` [Compound 25, 4-((1-(4-(5-(trifluoromethyl)thiazol-2-yl)piperazine-1-carbonyl)cyclopentyl)amino)benzonitrile], the IC50 worked out at 0.876 µM.
`N#Cc1ccc2[nH]c(C(=O)N3CCN(c4ccc(C(F)(F)F)cn4)CC3)cc2c1` [Compound 72, 2-(4-(5-(trifluoromethyl)pyridin-2-yl)piperazine-1-carbonyl)-1H-5-cyanoindole]: the IC50 was 0.971 µM.
Take `N#Cc1ccc2c(c1)CC(C(=O)N1CCN(c3cccc(C(F)(F)F)n3)CC1)O2` (centres unmarked) [Compound 73, 2-(4-(6-(trifluoromethyl)pyridin-2-yl)piperazine-1-carbonyl)-2,3-2H-5-cyanobenzofuran]: the IC50 was determined as 0.261 µM.
The value for `O=C(N1CCN(c2ccc(C(F)(F)F)nn2)CC1)C1(Oc2ccc([N+](=O)[O-])cc2)CCCC1` [Compound 53, 4-((1-(4-(6-(trifluoromethyl)pyridazin-3-yl)piperazine-1-carbonyl)cyclopentyl)oxy)nitro benzene] was 0.862 µM; that for `N#Cc1ccc(NC2(C(=O)N3CCN(c4ccccc4OC(F)(F)F)CC3)CCCC2)cc1` [Compound 4, 4-((1-(4-(2-(trifluoromethoxy)phenyl)piperazine-1-carbonyl)cyclopentyl)amino)benzo-nitrile] was 0.152 µM; that for `N#Cc1ccc(NC2(C(=O)N3CCN(c4nccc(C(F)(F)F)n4)CC3)CCCC2)cc1` [Compound 18, 4-((1-(4-(4-(trifluoromethyl)pyrimidin-2-yl)piperazine-1-carbonyl)cyclopentyl)amino) benzonitrile] was 0.038 µM.
The value for `N#Cc1ccc(NC2(C(=O)N3CCN(c4cccc(C(F)(F)F)c4)CC3)CCCC2)cc1` [Compound 2, 4-((1-(4-(3-(trifluoromethyl)phenyl)piperazine-1-carbonyl)cyclopentyl)amino)benzo-nitrile] was 0.105 µM; that for `CC(C)(C)C1CCN(C(=O)C2(Nc3nc(C#N)cs3)CCCC2)CC1` [Compound 39, 2-((1-(4-(tert-butyl)piperidine-1-carbonyl)cyclopentyl)amino) thiazole-4-carbonitrile] was 1.08 µM.
With `N#Cc1ccc(NC2(C(=O)N3CCN(c4cccc(C(F)(F)F)n4)CC3)CCC2)cc1` [Compound 13, 4-((1-(4-(6-(trifluoromethyl)pyridin-2-yl)piperazine-1-carbonyl)cyclobutyl)amino)benzo nitrile] the figure was 0.378 µM; with `N#Cc1ccc(NC2(C(=O)N3CCN(c4ccc(C(F)(F)F)cn4)CC3)CCCC2)cc1` [Compound 10, 4-((1-(4-(5-(trifluoromethyl)pyridin-2-yl)piperazine-1-carbonyl)cyclopentyl)amino)benzonitrile], 0.032 µM; with `O=C(C1Cc2cc(Cl)ccc2O1)N1CCN(c2cccc(C(F)(F)F)n2)CC1` (centres unmarked) [Compound 74, 2-(4-(6-(trifluoromethyl)pyridin-2-yl)piperazine-1-carbonyl)-2,3-2H-5-chlorobenzofuran], 0.116 µM.
Consider `CCC(CC)(Nc1ccc(C#N)cc1)C(=O)N1CCN(c2cccc(C(F)(F)F)c2)CC1` [Compound 8], for which the concentration for half-maximal inhibition (IC50) is 0.568 µM.
In the case of `N#Cc1ccc(OC2(C(=O)N3CCN(c4cccc(C(F)(F)F)n4)CC3)CCC2)cc1` [Compound 58, 4-((1-(4-(6-(trifluoromethyl)pyridin-2-yl)piperazine-1-carbonyl)cyclobutyl)oxy)benzo nitrile], the half-inhibitory concentration (IC50) worked out at 0.62 µM.
With `N#Cc1ccc(OC2(C(=O)N3CCN(c4ccc(C(F)(F)F)nn4)CC3)CCCC2)cc1` [Compound 52, 4-((1-(4-(6-(trifluoromethyl)pyridazin-3-yl)piperazine-1-carbonyl)cyclopentyl)oxy)ben zonitrile] the figure was 0.465 µM; with `CC(C)(C)C(Oc1ccc(C#N)cc1)C(=O)N1CCN(c2cccc(C(F)(F)F)n2)CC1` (centres unmarked) [Compound 51], 0.182 µM; with `CC(C)(C)C1CCN(C(=O)C(Nc2ccc(C#N)cc2)C(C)(C)C)CC1` (centres unmarked) [Compound 43, 4-((1-(4-(tert-butyl)piperidine-1-carbonyl)tert-butyl)amino) benzonitrile], 0.091 µM.
Consider `N#Cc1ccc(NC2(C(=O)N3CCC(C4CCCC4)CC3)CCCC2)cc1` [Compound 33, 4-((1-(4-(cyclopentyl)piperidine-1-carbonyl)cyclopentyl)amino)benzonitrile], for which the IC50 amounted to 0.092 µM.
With `N#Cc1ccc2c(c1)CC(C(=O)N1CCN(c3cccc(C(F)(F)F)n3)CC1)N2` (centres unmarked) [Compound 68, 2-(4-(6-(trifluoromethyl)pyridin-2-yl)piperazine-1-carbonyl)-5-cyanoindoline] the figure was 0.112 µM; with `Cn1ccc(N2CCN(C(=O)C3(Nc4ccc(C#N)cc4)CCCC3)CC2)n1` [Compound 26, 4-((1-(4-(1-methyl-1H-pyrazol-3-yl)piperazine-1-carbonyl)cyclopentyl)amino)benzonitrile], 2.83 µM.
With `CC(C)(C)N1CCN(C(=O)C2(Sc3ccc(C#N)cc3)CCCC2)CC1` [Compound 66, 4-((1-(4-(tert-butyl)piperazine-1-carbonyl)cyclopentyl)sul-fanyl)benzonitrile] the figure was 0.105 µM; with `CC(C)(C)C1CCN(C(=O)C2(Nc3ncc(C#N)s3)CCCC2)CC1` [Compound 40, 2-((1-(4-(tert-butyl)piperidine-1-carbonyl)cyclopentyl)amino)thiazole-5-carbonitrile], 0.95 µM.
The value for `N#Cc1ccc(OC2(C(=O)N3CCN(c4ccc(C(F)(F)F)cc4)CC3)CCCC2)cc1` [Compound 49] was 0.325 µM.

As usually defined, the IC50 is the concentration that inhibits the measured activity by half.

Source of the values: patent US12391660B2, “Heteroaromatic acetamide derivative, and preparation and use thereof” (Hangzhou Westan Pharmaceutical Technology Co., Ltd, priority 2019, dated 2025).
